Consider 45 compounds from patent US9732087B2, “Diamino-pyridine, pyrimidine, and pyridazine modulators of the histamine H4 receptor” (JANSSEN PHARMACEUTICA NV, priority 2008, dated 2017).

A value given as a limit tells only on which side of the number the result lay.

Sequence of human H4 receptor (Q9H3N8 whole entry): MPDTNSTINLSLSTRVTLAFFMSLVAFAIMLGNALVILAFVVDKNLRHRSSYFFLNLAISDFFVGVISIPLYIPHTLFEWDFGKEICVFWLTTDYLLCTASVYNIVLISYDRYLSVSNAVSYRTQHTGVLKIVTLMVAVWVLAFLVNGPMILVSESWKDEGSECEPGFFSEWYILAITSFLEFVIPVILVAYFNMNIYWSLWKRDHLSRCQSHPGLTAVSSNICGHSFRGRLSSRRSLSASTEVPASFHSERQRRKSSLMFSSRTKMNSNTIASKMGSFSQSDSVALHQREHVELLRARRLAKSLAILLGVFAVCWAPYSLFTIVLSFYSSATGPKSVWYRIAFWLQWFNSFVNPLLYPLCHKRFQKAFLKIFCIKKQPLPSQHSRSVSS

The first experiment concerns the target human H4 receptor (Homo sapiens (Human), UniProt Q9H3N8). Kind of experiment: Binding assay on recombinant human histamine H4 receptor ([3H]histamine competition, SK-N-MC cell membranes). The note with it: membranes harvested with 96 well Brandel system; [3H]histamine 10 nM; average of results; read-out: Brandel Ki. The procedure, abridged: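 Scintillation counting of filter-bound [3H]histamine after rapid harvesting on 0.5% PEI-treated GF/C filters with ice-cold Tris/EDTA washes. Receptor source: 30,000 g membrane pellets of SK-N-MC cells stably or transiently expressing human H4. Values shown as '>' are the top concentration tested.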
One may read the Ki as the equilibrium dissociation constant of an inhibitor or competing ligand from its target. As for `c1cc(N2CCNCC2)nc(NC2CC3CCC2C3)n1` (centres unmarked) [Example 70, Bicyclo[2.2.1]hept-2-yl-(4-piperazin-1-yl-pyrimidin-2-yl)-amine], the Ki is 240 nM.
Still for that read-out and setting: under `CCCCNc1nccc(N2CC[C@@H](NC)C2)n1` [Example 73, Butyl-[4-(3R)-(3-methylamino-pyrrolidin-1-yl)-pyrimidin-2-yl]-amine] stands 2 nM.

Still in this experiment, the particulars now being: membranes harvested with cell harvester; [3H]histamine 10 nM; average of results; read-out: Cell Harvester Ki.
As to `CC(C)(CO)CNc1nccc(N2CC[C@@H](N)C2)n1` [Example 153, 3-({4-[(3R)-3-Aminopyrrolidin-1-yl]pyrimidin-2-yl}amino)-2,2-dimethylpropan-1-ol], the Ki stood at 43.6 nM.
As for `N[C@@H]1CCN(c2cnnc(NC3CCCCC3)c2)C1` [Example 365, 5-[(3R)-3-Aminopyrrolidin-1-yl]-N-cyclohexylpyridazin-3-amine], the inhibitory constant (Ki) is 508 nM.
Same read-out and setting: under `CNC1CN(c2ccnc(NCC(C)(C)O)n2)C1` [Example 122] stands 64.7 nM.
With `NC1CN(c2cnnc(NCc3ccccc3)c2)C1` [Example 329, 5-(3-Aminoazetidin-1-yl)-N-benzylpyridazin-3-amine], the Ki was greater than 10000 nM.
Still for that read-out and setting: under `C[C@@H]1[C@@H](Nc2nccc(N3CC[C@@H](N)C3)n2)C[C@H]2C[C@@H]1C2(C)C` [Example 116, 4-[(3R)-3-Aminopyrrolidin-1-yl]-N-[(1S,2S,3S,5R)-2,6,6-trimethylbicyclo[3.1.1]hept-3-yl]pyrimidin-2-amine] stands 7.53 nM; under `CN[C@H]1CCN(c2ccnc(N[C@H](C)C3CCCCC3)c2)C1` [Example 213, N-[(1R)-1-Cyclohexylethyl]-4-[(3S)-3-(methylamino)pyrrolidin-1-yl]pyridin-2-amine], 157 nM; under `CC1(C)C2CCC(CNc3nccc(N4CC[C@@H](N)C4)n3)C1C2` (stereo partly drawn) [Example 106, 4-[(3R)-3-Aminopyrrolidin-1-yl]-N-[(6,6-dimethylbicyclo[3.1.1]hept-2-yl)methyl]pyrimidin-2-amine], 194 nM.
Regarding `CN[C@@H]1CCN(c2cnnc(NCC3CCCCC3)c2)C1` [Example 391, N-(Cyclohexylmethyl)-5-[(3R)-3-(methylamino)pyrrolidin-1-yl]pyridazin-3-amine], the Ki stood at 36.5 nM.
Still for that read-out and setting: under `CN[C@H]1CCN(c2ccnc(NC(C)(C)C)c2)C1` [Example 233, N-tert-Butyl-4-[(3S)-3-(methylamino)pyrrolidin-1-yl]pyridin-2-amine] stands 215 nM.
On to `N[C@@H]1CCN(c2ccnc(NCC3CCCC3)c2)C1` [Example 278, 4-[(3R)-3-Aminopyrrolidin-1-yl]-N-(cyclopentylmethyl)pyridin-2-amine], for which the Ki is 7.29 nM.
Still for that read-out and setting: under `CC(C)CNc1nccc(N2C[C@H]3CCN[C@H]3C2)n1` [Example 138, 4-[(3aR,6aR)-Hexahydropyrrolo[3,4-b]pyrrol-5(1H)-yl]-N-(2-methylpropyl)pyrimidin-2-amine] stands 23.8 nM; under `c1ccc(Nc2cc(N3CCNCC3)ccn2)cc1` [Example 38, N-Phenyl-4-piperazin-1-ylpyridin-2-amine], 275 nM.
With `N[C@H]1CCN(c2ccnc(NCC3CC3)n2)C1` [Example 109, 4-[(3S)-3-Aminopyrrolidin-1-yl]-N-(cyclopropylmethyl)pyrimidin-1-amine], the Ki came to 64 nM.
`CN1CCN(c2ccnc(NCc3ccccn3)c2)CC1` [Example 244, 4-(4-Methylpiperazin-1-yl)-N-(pyridin-2-ylmethyl)pyridin-2-amine]: the Ki was 3880 nM.
Still for that read-out and setting: under `CC1C(Nc2cc(N3CCN(C)CC3)ccn2)C[C@H]2C[C@@H]1C2(C)C` (stereo partly drawn) [Example 232, 4-(4-Methylpiperazin-1-yl)-N-[(1S,5R)-2,6,6-trimethylbicyclo[3.1.1]hept-3-yl]pyridin-2-amine] stands 716 nM; under `CNC1CN(c2cnnc(NCc3ccccn3)c2)C1` [Example 352, 5-[3-(Methylamino)azetidin-1-yl]-N-(pyridin-2-ylmethyl)pyridazin-3-amine], greater than 10000 nM; under `c1cc(N2CCCNCC2)cc(NC2CC3CCC2C3)n1` (centres unmarked) [Example 265, N-Bicyclo[2.2.1]hept-2-yl-4-(1,4-diazepan-1-yl)pyridin-2-amine], 1.71 nM.
Same read-out and setting: under `N[C@@H]1CCN(c2cnnc(NCc3ccc(F)cc3)c2)C1` [Example 342, 5-[(3R)-3-Aminopyrrolidin-1-yl]-N-(4-fluorobenzyl)pyridazin-3-amine] stands 936 nM.
Take `OCCCNc1cc(N2C[C@H]3CCN[C@H]3C2)cnn1` [Example 305, 3-({5-[(3aR,6aR)-Hexahydropyrrolo[3,4-b]pyrrol-5(1H)-yl]pyridazin-3-yl}amino)propan-1-ol]: the Ki amounted to 1060 nM.
In the case of `CN[C@H]1CCN(c2ccnc(NC34CC5CC(CC(C5)C3)C4)c2)C1` [Example 210, Adamantan-1-yl-[4-(3S)-(3-methylamino-pyrrolidin-1-yl)-pyridin-2-yl]-amine], the Ki stood at 296 nM.
`CCCCNc1nccc(N2CCNCC2)n1` [Example 68, Butyl-(4-piperazin-1-yl-pyrimidin-2-yl)-amine]: the Ki came to 36.7 nM.
Still for that read-out and setting: under `CN[C@H]1CCN(c2cnnc(NCC3CCCC3)c2)C1` [Example 382, N-(Cyclopentylmethyl)-5-[(3S)-3-(methylamino)pyrrolidin-1-yl]pyridazin-3-amine] stands 138 nM; under `c1ccc(CNc2cc(N3CCNCC3)ccn2)nc1` [Example 260, 4-Piperazin-1-yl-N-(pyridin-2-ylmethyl)pyridin-2-amine], greater than 10000 nM.
Same read-out and setting: under `c1cc(N2C[C@H]3CCN[C@H]3C2)nc(NC2CC2)n1` [Example 143, N-Cyclopropyl-4-[(3aR,6aR)-hexahydropyrrolo[3,4-b]pyrrol-5(1H)-yl]pyrimidin-2-amine] stands 267 nM.
Still for that read-out and setting: under `N[C@@H]1CCN(c2ccnc(NC3CCCCC3)c2)C1` [Example 274, 4-[(3R)-3-Aminopyrrolidin-1-yl]-N-cyclohexylpyridin-2-amine] stands 10.6 nM.
As for `COCCNc1cc(N2CCN(C)CC2)cnn1` [Example 405, N-(2-Methoxyethyl)-5-(4-methylpiperazin-1-yl)pyridazin-3-amine], the Ki is greater than 10000 nM.
Still for that read-out and setting: under `CC(C)CNc1cc(N2C[C@H]3CCN[C@H]3C2)cnn1` [Example 318, 5-[(3aR,6aR)-Hexahydropyrrolo[3,4-b]pyrrol-5(1H)-yl]-N-(2-methylpropyl)pyridazin-3-amine] stands 1240 nM; under `CNC1CN(c2ccnc(NCC(C)C)c2)C1` [Example 34, 4-[3-(Methylamino)azetidin-1-yl]-N-(2-methylpropyl)pyridin-2-amine], 18.1 nM.
Take `c1cc(N2CCNCC2)nc(NC2CC3CCC2C3)n1` (centres unmarked) [Example 70, Bicyclo[2.2.1]hept-2-yl-(4-piperazin-1-yl-pyrimidin-2-yl)-amine]: the Ki is 73 nM.
Still for that read-out and setting: under `N[C@@H]1CCN(c2cnnc(NC3CCCC3)c2)C1` [Example 368, 5-[(3R)-3-Aminopyrrolidin-1-yl]-N-cyclopentylpyridazin-3-amine] stands 290 nM; under `c1ccc(CCNc2cc(N3CCNCC3)cnn2)cc1` [Example 362, N-(2-Phenylethyl)-5-piperazin-1-ylpyridazin-3-amine], 2210 nM.
As for `CCCCNc1nccc(N2CC[C@@H](NC)C2)n1` [Example 73, Butyl-[4-(3R)-(3-methylamino-pyrrolidin-1-yl)-pyrimidin-2-yl]-amine], the Ki stood at 0.7 nM.
The same measure, in the same setting: under `CN(CCN)c1cnnc(NCC(C)(C)C)c1` [Example 300, N^5-(2-Aminoethyl)-N^3-(2,2-dimethylpropyl)-N^5-methylpyridazine-3,5-diamine] stands 1860 nM.
Take `CC(C)(C)CNc1nccc(N2CC(N)C2)n1` [Example 88, 4-(3-Aminoazetidin-1-yl)-N-(2,2-dimethylpropyl)pyrimidin-2-amine]: the Ki stood at 42.7 nM.
Still for that read-out and setting: under `N[C@H]1CCN(c2cnnc(NCC3CCCC3)c2)C1` [Example 317, 5-[(3S)-3-Aminopyrrolidin-1-yl]-N-(cyclopentylmethyl)pyridazin-3-amine] stands 930 nM; under `N[C@H]1CCN(c2ccnc(NC3CC4CCC3C4)n2)C1` (stereo partly drawn) [Example 146, 4-[(3S)-3-Aminopyrrolidin-1-yl]-N-bicyclo[2.2.1]hept-2-ylpyrimidin-2-amine], 34.1 nM; under `CN[C@H]1CCN(c2ccnc(NC3C[C@H]4C[C@@H](C3C)C4(C)C)c2)C1` (stereo partly drawn) [Example 230, 4-[(3S)-3-(Methylamino)pyrrolidin-1-yl]-N-[(1S,5R)-2,6,6-trimethylbicyclo[3.1.1]hept-3-yl]pyridin-2-amine], 276 nM.
With `CNC1CN(c2cnnc(NC3CCCC3)c2)C1` [Example 332, N-Cyclopentyl-5-[3-(methylamino)azetidin-1-yl]pyridazin-3-amine], the Ki turned out to be 1660 nM.
On the same count and under the same terms, under `CN[C@H]1CCN(c2ccnc(NC3CC3)c2)C1` [Example 235, N-Cyclopropyl-4-[(3S)-3-(methylamino)pyrrolidin-1-yl]pyridin-2-amine] stands 409 nM; under `COCCNc1cc(N2CCN(C)CC2)ccn1` [Example 239, N-(2-Methoxyethyl)-4-(4-methylpiperazin-1-yl)pyridin-2-amine], 701 nM.
On the same count and under the same terms, under `c1nnc(NC2CCCCC2)cc1N1CCNCC1` [Example 355, N-Cyclohexyl-5-piperazin-1-ylpyridazin-3-amine] stands 2900 nM.
On to `CC1(C)[C@@H]2CC[C@@]1(C)[C@@H](Nc1nccc(N3CC[C@@H](N)C3)n1)C2` [Example 127, 4-[(3R)-3-Aminopyrrolidin-1-yl]-N-[(1R,2S,4R)-1,7,7-trimethylbicyclo[2.2.1]hept-2-yl]pyrimidin-2-amine], for which the Ki was determined as 1.66 nM.
In the case of `COCCNc1cc(N2CC[C@@H](N)C2)ccn1` [Example 289, 4-[(3R)-3-Aminopyrrolidin-1-yl]-N-(2-methoxyethyl)pyridin-2-amine], the Ki was found to be 410 nM.
Still for that read-out and setting: under `NC1CN(c2ccnc(NCc3ccc(F)cc3)n2)C1` [Example 92, 4-(3-Aminoazetidin-1-yl)-N-(4-fluorobenzyl)pyrimidin-2-amine] stands 615 nM; under `CN(CCN)c1cnnc(NCC2CCCC2)c1` [Example 303, N^5-(2-Aminoethyl)-N^3-(cyclopentylmethyl)-N^5-methylpyridazine-3,5-diamine], 417 nM.
